Assay: Agilent ZORBAX 300 SB-C18, 150 × 1 mm, 3.5 µm; A: water + 0.01% heptafluorobutyric acid; B: acetonitrile + 0.01% heptafluorobutyric acid; gradient (min/%B) 0/0 100/90
Conditions: stereoisomer not certain
`CN1C(=O)NC(c2ccc(O)cc2)C2=C1CN(Cc1ccccc1)C2=O` (stereo not given) gave an LC retention time of 9.6 min.
`CCCCN(C)C` gave an LC retention time of 7.03 min.
In the case of `NC(CC(=O)O)c1ccc(C(=O)O)cc1` (stereo not given), the LC retention time was 6.32 min.
For `Cc1cc2c(s1)Nc1ccccc1N=C2N`, the LC retention time was 9.24 min.
`Nc1ccc(C(=O)NC=C2CCCC2)cc1` gave an LC retention time of 7.87 min.
With `COc1ccc2nc(C)c3c(c2c1)OC(C)C3` (stereo not given) the LC retention time was 9.25 min.
With `O=C(O)c1cc(-c2ccccc2)nc2ccccc12` the LC retention time was 11.6 min.
With `CNCCCc1cc(C)ccc1O` the LC retention time was 8.44 min.
Work on `Cc1cccc(NC(=O)C(Cc2c[nH]c3ccccc23)NC(=O)C(c2ccccc2)c2ccccc2)c1` (stereo not given) yielded an LC retention time of 16.8 min.
With `c1cncc(CN=Nc2nc(N3CCCCC3)nc(N3CCCCC3)n2)c1` the LC retention time was 11.5 min.
With `COc1cc(OC)c2cc[nH]c2c1` the LC retention time was 11.1 min.
`Cc1cc(C)ncn1` showed an LC retention time of 7.51 min.
With `O=C(O)CCC(=O)Nc1ccc2c(c1)CCCC2` the LC retention time was 11.2 min.
For `c1ccc(Cc2nn[nH]n2)cc1`, the LC retention time was 8.45 min.
In the case of `O=C(NN=Cc1cccc(O)c1)c1cc2ccccc2cc1O`, the LC retention time was 12.2 min.
`O=C(c1ccccc1O)N1CCCC1` showed an LC retention time of 9.29 min.
Work on `Cc1ccc(C(=O)C=Cc2sccc2C)cc1` yielded an LC retention time of 17.4 min.
Molecule `NC(=O)CCCc1c[nH]c2ccccc12` has an LC retention time of 9.42 min.
Molecule `Cc1ccc(C(=O)NC(C)c2ccc(O)cc2)cc1` (stereo not given) has an LC retention time of 11.1 min.
With `C[N+](C)(CCOCc1ccccc1)CCOCc1ccccc1` the LC retention time was 11.7 min.
Work on `CCCCN1CNC(=S)N(c2ccccc2C)C1` yielded an LC retention time of 12.6 min.
Molecule `Cc1cc2cc(N)ccc2n1C` has an LC retention time of 8.33 min.
`CN(C)C(=O)c1ccccc1` showed an LC retention time of 8.98 min.
`CC(=CCc1ccccc1)N=Nc1nc(=S)[nH][nH]1` showed an LC retention time of 10.6 min.
For `C#CCN(CCCC)CCCC`, the LC retention time was 9.04 min.
Molecule `O=C(NCc1n[nH]c(=O)c2ccccc12)C(=Cc1ccco1)NC(=O)c1ccco1` has an LC retention time of 9.12 min.
With `Nc1ccc2nc(-c3ccccc3)oc(=O)c2c1` the LC retention time was 11.2 min.
Molecule `O=C1NCCCC1C(=O)N1CCN(C(=O)c2ccco2)CC1` (stereo not given) has an LC retention time of 7.34 min.
`CC(C)C(N)C(C)(C)O` (stereo not given) showed an LC retention time of 7.04 min.
In the case of `O=C(O)CC1C(=O)Nc2ccccc21` (stereo not given), the LC retention time was 7.72 min.
For `O=c1ccc2nc3ccc(O)cc3oc-2c1`, the LC retention time was 9.57 min.
With `OCc1cccc(CO)n1` the LC retention time was 5.64 min.
`CC(=O)OC1(C(C)=O)CCC2C3CC(C)C4=CC(=O)CCC4(C)C3CCC21C` (stereo not given) gave an LC retention time of 17 min.
With `Cc1ccc(CCC(=O)O)cc1N` the LC retention time was 7.58 min.
`O=C(O)CCn1c2c(c3ccccc31)CCCC2` showed an LC retention time of 14.3 min.
`O=C(Oc1cccc2cccnc12)c1ccccc1` gave an LC retention time of 13.8 min.
Molecule `O=C(CNc1ccc2ccccc2c1)NN=Cc1ccccc1` has an LC retention time of 14.8 min.
For `CC1(C)CC(=O)C2=C(C1)NCN(Cc1ccccc1)C2`, the LC retention time was 8.44 min.
Molecule `C=CCOc1ccccc1OCC(O)CNC(C)C` (stereo not given) has an LC retention time of 9.94 min.
For `CCN(CC)C(=O)N1CCN(c2ccc(N)cc2)CC1`, the LC retention time was 8.72 min.
`Cc1cc(C=O)c(C)n1C1CCCCC1` showed an LC retention time of 14.4 min.
Molecule `CCCCCCCCCCCCNC` has an LC retention time of 13.5 min.
With `CCOC(=O)c1ccc(NC(=O)C2CC(=O)N(C3CCCCC3)C2)cc1` (stereo not given) the LC retention time was 13.2 min.
Molecule `COc1ccc2occ(C(=O)c3ccccc3C)c(=O)c2c1` has an LC retention time of 14.2 min.
`O=P(O)(O)CN(CCN(CP(=O)(O)O)CP(=O)(O)O)CP(=O)(O)O` showed an LC retention time of 1.09 min.
`CN(C)c1ccc(C=C2Nc3ccccc3C2=O)cc1` gave an LC retention time of 13.7 min.
Work on `CC(=O)Nc1ccccn1` yielded an LC retention time of 6.5 min.
In the case of `CCc1ccc(C2CC(=O)N(N(C)C)C3=C2C(=O)CCC3)cc1` (stereo not given), the LC retention time was 15.1 min.
In the case of `CNC(=O)NC`, the LC retention time was 1.96 min.
In the case of `C1CCNCC1`, the LC retention time was 6.6 min.
For `c1ccc2ncccc2c1`, the LC retention time was 7.27 min.
In the case of `c1ccc2nc3c(nc2c1)[nH]c1ccccc13`, the LC retention time was 12 min.
`O=S(=O)(O)c1ccc(Nc2ccccc2)cc1` showed an LC retention time of 7.25 min.
Work on `S=C(NC1CCCCC1)NC1CCCCC1` yielded an LC retention time of 14.9 min.
For `COc1nc(N2CCCC2)[nH]c(=O)n1`, the LC retention time was 7.43 min.
Molecule `C(=Cc1ccco1)C=NN1CCN(Cc2cccc3ccccc23)CC1` has an LC retention time of 11.2 min.
Work on `Cc1nc(N=C(N)N)nc2c(C)cccc12` yielded an LC retention time of 9.23 min.
Molecule `c1nc2c(ccc3[nH]cnc32)[nH]1` has an LC retention time of 6.84 min.
With `CC(=NCCN1CCNCC1)C1=C(O)CC(C)(C)CC1=O` the LC retention time was 8.02 min.
In the case of `CCCCc1c(O)n(-c2ccc(O)cc2)n(-c2ccccc2)c1=O`, the LC retention time was 12.8 min.
Molecule `CC(=O)NC(NC(C)=O)c1ccncc1` has an LC retention time of 5.53 min.
`c1ccc2c(c1)CCN2` showed an LC retention time of 7.26 min.
With `C=CC1CN2CCC1CC2C(O)c1ccnc2ccc(OC)cc12` (stereo not given) the LC retention time was 9.1 min.
Work on `CN(C)CCN(C)CCN(C)C` yielded an LC retention time of 6.9 min.
`S=C(NCc1ccccc1)Nc1cccc2ccccc12` gave an LC retention time of 14.4 min.
Work on `Cc1ccc(CSc2ncccn2)c(CSc2ncccn2)c1C` yielded an LC retention time of 16 min.
`CN1CCCC1` gave an LC retention time of 5.54 min.
Work on `COc1cccc(C2C3=C(CC(C)(C)CC3=O)OC3=C2C(=O)CC(C)(C)C3)c1OC` yielded an LC retention time of 16.5 min.
`CCN(CC)CC(=O)Nc1c(C)cccc1C` gave an LC retention time of 9.19 min.
For `C=CC[n+]1ccc2ccccc2c1`, the LC retention time was 7.67 min.
Molecule `CC(=O)c1[nH]c(C)c(C(=O)c2ccccc2)c1C` has an LC retention time of 11.6 min.
Molecule `CC(=O)c1cccc(N2C(=O)C3CCCCC3C2=O)c1` (stereo not given) has an LC retention time of 12 min.
`NCCn1cnc2ccccc2c1=O` showed an LC retention time of 7.46 min.
Work on `c1ccc(Nc2ncnc3nc[nH]c23)cc1` yielded an LC retention time of 8.8 min.
Work on `CCOC(=O)c1[nH]c(C)c(C(=O)OCc2ccccc2)c1C` yielded an LC retention time of 15.8 min.
With `Cc1cn(-c2ccccc2)[nH]c1=O` the LC retention time was 10.8 min.
In the case of `Cc1cccc(N)c1`, the LC retention time was 8.01 min.
`Cc1ccc(-c2cc(-c3ccc(C)cc3)on2)cc1` showed an LC retention time of 18.8 min.
`CN(C)CCC(=O)c1ccc2ccccc2c1` showed an LC retention time of 9.4 min.
For `Nc1c2c(nc3ccccc13)N(C1CCCCC1)CC2`, the LC retention time was 10.9 min.
